*1 amine or outer side, *2 acyl side, *3 side chain or, on linkers, in order; H or OH if unused. Where a SMILES comes first, the peptide text is derived from it. Bridges are numbered along the chain shown (N, C = ends). [ ]: non-standard residue; d: D form. The star is where a group is joined. hPhe(3-Cl-4-CF3) = N[C@@H](CCc1ccc(C(F)(F)F)c(Cl)c1)C(=O)O; X46 = CCCCN([C@@H](Cc1ccc(C)cc1)C(=O)[*:2])[*:1]; NEtPhe(4-Me) = CCN[C@@H](Cc1ccc(C)cc1)C(=O)O; NMeGly(cPent) = CN[C@H](C(=O)O)C1CCCC1; Hyp = O=C(O)[C@@H]1C[C@@H](O)CN1; NMeD = CN[C@@H](CC(=O)O)C(=O)O; NMeL = CN[C@@H](CC(C)C)C(=O)O; Morpholide = C1CN(*)CCO1; NMeA = CN[C@@H](C)C(=O)O; Ac5c = NC1(C(=O)O)CCCC1; Aze = O=C(O)[C@@H]1CCN1; X51 = C1CCC(*)OC1; Sar = CNCC(=O)O
Legend:
[1] = molecular target: GDP-bound HRAS wild-type protein (Homo sapiens, UniProt P01112); test: Binding to HRAS by surface plasmon resonance (SPR), Single Cycle Kinetics; conditions: for HRAS/KRAS (ratio of KD value for HRAS to KD value for KRAS): SPR, GDP-bound HRAS wild-type protein vs GDP-bound KRAS wild-type protein
Chain of GDP-bound HRAS wild-type protein (P01112 whole entry): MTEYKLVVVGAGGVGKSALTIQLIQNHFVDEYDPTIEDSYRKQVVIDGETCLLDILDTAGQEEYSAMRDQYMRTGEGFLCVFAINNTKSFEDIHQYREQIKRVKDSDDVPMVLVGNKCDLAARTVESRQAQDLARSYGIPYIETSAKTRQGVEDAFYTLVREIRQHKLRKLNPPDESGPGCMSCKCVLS

[2] = molecular target: GDP-bound NRAS wild-type protein (Homo sapiens, UniProt P01111); test: Binding to NRAS by surface plasmon resonance (SPR), Single Cycle Kinetics; conditions: for NRAS/KRAS (ratio of KD value for NRAS to KD value for KRAS): SPR, GDP-bound NRAS wild-type protein vs GDP-bound KRAS wild-type protein
Chain of GDP-bound NRAS wild-type protein (P01111 whole entry): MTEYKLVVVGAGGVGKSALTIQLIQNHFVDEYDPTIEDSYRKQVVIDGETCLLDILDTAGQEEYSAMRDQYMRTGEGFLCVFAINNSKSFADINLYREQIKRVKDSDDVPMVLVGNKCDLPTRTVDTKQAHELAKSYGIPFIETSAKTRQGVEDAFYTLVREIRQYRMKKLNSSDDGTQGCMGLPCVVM

SMILES | HRAS/KRAS (ratio of KD value for HRAS to KD value for KRAS) [1] | NRAS/KRAS (ratio of KD value for NRAS to KD value for KRAS) [2] | HRAS/KRAS (ratio of KD value with respect to GDP-bound HRAS wild-type protein to KD value with respect to KRAS) ([1]; SPR KD ratio HRAS/KRAS, class symbols) | NRAS/KRAS (ratio of KD value with respect to GDP-bound NRAS wild-type protein to KD value with respect to KRAS) ([2]; SPR KD ratio NRAS/KRAS, class symbols)
CCCN1C(=O)[C@@H]2CCN2C(=O)[C@H](C)N(C)C(=O)[C@H]([C@@H](C)CC)NC(=O)[C@H](CC(C)C)N(C)C(=O)C[C@@H](C(=O)N2CCOCC2)N(C)C(=O)[C@H](C2CCCC2)N(C)C(=O)C2(CCCC2)NC(=O)[C@@H]2C[C@H](O)CN2C(=O)[C@H](CCc2ccc(C(F)(F)F)c(Cl)c2)NC(=O)CN(C)C(=O)[C@@H]1Cc1ccc(C(F)(F)F)cc1 (stereo in doubt) [PP0238] | C (A compound having a KD ratio of 0.1 or more and less than 3 is denoted as C) | C (A compound having a KD ratio of 0.1 or more and less than 3 is denoted as C) |  | 
CC[C@H](C)[C@@H]1NC(=O)[C@H](CC(C)C)N(C)C(=O)C[C@@H](C(=O)N2CCOCC2)N(C)C(=O)[C@H](C2CCCC2)N(C)C(=O)C2(CCCC2)NC(=O)[C@@H]2CCCN2C(=O)[C@H](CCc2ccc(C(F)(F)F)c(Cl)c2)NC(=O)CN(C)C(=O)[C@H](Cc2ccc(C(F)(F)F)cc2)N2CCCCC[C@@H](C2=O)N(C)C(=O)CN(C)C1=O (stereo in doubt) [PP0319] | B (a compound having 3 or more and less than 10 is denoted as B) | B (a compound having 3 or more and less than 10 is denoted as B) |  | 
CCCN1C(=O)CN(C)C(=O)CN(C)C(=O)[C@H]([C@@H](C)CC)NC(=O)[C@@H]2CCCCCCC[C@@](C)(NC(=O)[C@@H]3C[C@@H](OCC)CN3C(=O)[C@H](CCc3cc(F)c(C(F)(F)F)c(F)c3)NC(=O)CN(C)C(=O)[C@@H]1Cc1ccc(C(F)(F)F)cc1)C(=O)N(C)[C@@H](C1CCCC1)C(=O)N(C)[C@H](C(=O)N1CCOCC1)CC(=O)N2C (stereo in doubt) [PP0898] | B (a compound having 3 or more and less than 10 is denoted as B) | B (a compound having 3 or more and less than 10 is denoted as B) |  | 
CCCN1C(=O)CN(C)C(=O)CN(C)C(=O)[C@H]([C@@H](C)CC)NC(=O)[C@@H]2COCC=CC[C@@](C)(NC(=O)[C@@H]3C[C@@H](OCC)CN3C(=O)[C@H](CCc3cc(F)c(C(F)(F)F)c(F)c3)NC(=O)CN(C)C(=O)[C@@H]1Cc1ccc(C(F)(F)F)cc1)C(=O)N(C)[C@@H](C1CCCC1)C(=O)N(C)[C@H](C(=O)N1CCOCC1)CC(=O)N2C (stereo in doubt) [PP0903] | C (A compound having a KD ratio of 0.1 or more and less than 3 is denoted as C) | B (a compound having 3 or more and less than 10 is denoted as B) |  | 
CC[C@H](C)[C@@H]1NC(=O)[C@H](CC(C)C)N(C)C(=O)C[C@@H](C(=O)N2CCOCC2)N(C)C(=O)[C@H](C2CCCC2)N(C)C(=O)C2(CCC2)NC(=O)[C@@H]2C[C@@H](OCCC(F)(F)F)CN2C(=O)[C@H](CCc2cc(F)c(C(F)(F)F)c(F)c2)NC(=O)CN(C)C(=O)[C@H](Cc2ccc(C(F)(F)F)cc2)N2CCCC[C@@H](C2=O)N(C)C(=O)CN(C)C1=O (stereo in doubt) [PP0998] | B (a compound having 3 or more and less than 10 is denoted as B) | B (a compound having 3 or more and less than 10 is denoted as B) |  | 
CCO[C@@H]1C[C@H]2C(=O)NC3(CCC3)C(=O)N(C)[C@@H](C3CCCC3)C(=O)N(C)[C@H](C(=O)N(C)CC)CC(=O)N(C)[C@H]3CCCCCc4ccc(cc4)C[C@@H](C(=O)N(C)CC(=O)N[C@@H](CCc4cc(F)c(C(F)(F)F)c(F)c4)C(=O)N2C1)N1CC/C=C\C[C@@H](C1=O)N(C)C(=O)CN(C)C(=O)[C@H]([C@@H](C)CC)NC3=O (stereo in doubt) [PP2117] | A (a compound having 10 or more and less than 20 is denoted as A) | A (a compound having 10 or more and less than 20 is denoted as A) |  | 
CCOC[C@H]1C(=O)N[C@@H]([C@@H](C)CC)C(=O)N(C)CC(=O)N(C)[C@H]2C/C=C\CCN(C2=O)[C@@H](Cc2ccc(CC)cc2)C(=O)N(C)CC(=O)N[C@@H](CCc2ccc(C(F)(F)F)c(OC)c2)C(=O)N2C[C@@H](C)C[C@H]2C(=O)NC2(CC(C)(C)C2)C(=O)N(C)[C@@H](C2CCCC2)C(=O)N(C)[C@H](C(=O)N(C)CC)CC(=O)N1C (stereo in doubt) [PP2696] |  |  | B (a compound having 3 or more and less than 10 is denoted as B) | A (a compound having 10 or more and less than 20 is denoted as A)
CCCCN1C(=O)[C@@H]2CCN2C(=O)[C@H](C)N(C)C(=O)[C@H]([C@@H](C)CC)NC(=O)[C@H](CC(C)C)N(C)C(=O)C[C@@H](C(=O)N2CCOCC2)N(C)C(=O)[C@H](C2CCCC2)N(C)C(=O)C2(CCCC2)NC(=O)[C@@H]2CCCN2C(=O)[C@H](CCc2ccc(C(F)(F)F)c(Cl)c2)NC(=O)CN(C)C(=O)[C@@H]1Cc1ccc(C)cc1 [PP0055] ([NMeL]I[NMeA][Aze][X46][Sar][hPhe(3-Cl-4-CF3)]P[Ac5c][NMeGly(cPent)][NMeD]-Morpholide; lactam N-11) | C (A compound having a KD ratio of 0.1 or more and less than 3 is denoted as C) | C (A compound having a KD ratio of 0.1 or more and less than 3 is denoted as C) |  | 
CC[C@H](C)[C@@H]1NC(=O)[C@H](CC(C)C)N(C)C(=O)C[C@@H](C(=O)N2CCOCC2)N(C)C(=O)[C@H](C2CCCC2)N(C)C(=O)C2(CCCC2)NC(=O)[C@@H]2C[C@@H](OC3CCCCO3)CN2C(=O)[C@H](CCc2ccc(C(F)(F)F)c(Cl)c2)NC(=O)CN(C)C(=O)[C@H](Cc2ccc(C)cc2)N(CC)C(=O)[C@@H]2CCN2C(=O)[C@H](C)N(C)C1=O (some centres unmarked) [PP0067] ([NMeL]I[NMeA][Aze][NEtPhe(4-Me)][Sar][hPhe(3-Cl-4-CF3)][Hyp](X51)[Ac5c][NMeGly(cPent)][NMeD]-Morpholide; lactam N-11) | C (A compound having a KD ratio of 0.1 or more and less than 3 is denoted as C) | C (A compound having a KD ratio of 0.1 or more and less than 3 is denoted as C) |  | 
CC[C@H](C)[C@@H]1NC(=O)[C@H](CC(C)C)N(C)C(=O)C[C@@H](C(=O)N2CCOCC2)N(C)C(=O)[C@H](C2CCCC2)N(C)C(=O)C2(CCCC2)NC(=O)[C@@H]2C[C@@H](OC3CCCCO3)CN2C(=O)[C@H](CCc2ccc(C(F)(F)F)c(Cl)c2)NC(=O)CN(C)C(=O)[C@H](Cc2ccc(C)cc2)N(CC)C(=O)CN(C)C(=O)CN(C)C1=O (some centres unmarked) [PP0068] ([NMeL]I[Sar][Sar][NEtPhe(4-Me)][Sar][hPhe(3-Cl-4-CF3)][Hyp](X51)[Ac5c][NMeGly(cPent)][NMeD]-Morpholide; lactam N-11) | C (A compound having a KD ratio of 0.1 or more and less than 3 is denoted as C) | C (A compound having a KD ratio of 0.1 or more and less than 3 is denoted as C) |  | 

Source: patent US20240158446A1, “CYCLIC COMPOUND HAVING SELECTIVE INHIBITORY ACTION ON KRAS OVER HRAS AND NRAS” (CHUGAI SEIYAKU KABUSHIKI KAISHA, priority 2021, published 2024)
